This is an account of results in ChEMBL document CHEMBL1201862, “PubChem BioAssay data set” (2004).

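Assay format: 96-well plates, 48-hour exposure. The concentration for 50% growth inhibition is given as GI50.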 Activity calls are given as the source filed them. Cut-off read from the data, not from the text of the source: active = GI50 up to about 1.1 µM and inactive = higher. A value given as a limit tells only on which side of the number the result lay.

Test systems include CCRF-CEM; PC-3; MDA-MB-435; OVCAR-4; SF-539; RPMI-8226; IGROV-1; Hs-578T; KM12; OVCAR-8; RXF 393; EKVX; BT-549; SK-MEL-2; DU-145; HCT-15; HCC 2998; A549; SNB-75; OVCAR-3.
Holding throughout (test): NCI anticancer screen, dose series, 48 h

In the case of `Cc1ccc(C(=N)Nc2ccccc2)cc1`, the GI50 in the assay on CCRF-CEM is 52.2 µM (inactive); in the assay with PC-3, > 100 µM (inactive); in the assay with MDA-MB-435, > 100 µM (inactive); in the assay on OVCAR-4 it was > 100 µM (inactive); in the assay on SF-539 it was > 100 µM (inactive); in the assay on RPMI-8226 it was > 100 µM (inactive). Besides, the GI50 with IGROV-1, in the assay on Hs-578T, in the assay with KM12, with OVCAR-8, in the assay on RXF 393 and in the assay on EKVX was > 100 µM (inactive) each time. Also, the GI50 is > 100 µM (inactive) in the assay with BT-549; > 100 µM (inactive) with SK-MEL-2; > 100 µM (inactive) with DU-145; more than 100 µM in the assay on HCT-15; 8.13 µM (inactive) in the assay on HCC 2998; > 100 µM (inactive) with A549. Besides, the GI50 with SNB-75 and in the assay on OVCAR-3 was > 100 µM (inactive) throughout.
As for `O=C1c2cccc([N+](=O)[O-])c2C(=O)N1Cc1ccccc1`, the GI50 in the assay on CCRF-CEM, in the assay with PC-3, in the assay with MDA-MB-435, with OVCAR-4, with SF-539 and in the assay with RPMI-8226 was > 100 µM (inactive) throughout. Besides, the GI50 in the assay with IGROV-1, in the assay on Hs-578T, in the assay with KM12, with OVCAR-8, in the assay on RXF 393 and with EKVX was > 100 µM (inactive) in each case. Further, the GI50 was > 100 µM (inactive) in the assay on BT-549; > 100 µM (inactive) with SK-MEL-2; > 100 µM (inactive) in the assay on DU-145; more than 100 µM with HCT-15; > 100 µM (inactive) in the assay with HCC 2998; > 100 µM (inactive) with A549. Further, the GI50 in the assay with SNB-75 and in the assay with OVCAR-3 was > 100 µM (inactive) each time.
For the compound `O=C1c2ccccc2C2(c3ccc(Cl)cc3)NCc3ccccc3CN12` (stereo not given), the GI50 is 25.9 µM (inactive) in the assay with CCRF-CEM; 16.1 µM (inactive) in the assay on PC-3; 26.7 µM (inactive) in the assay on MDA-MB-435; 23.7 µM (inactive) with OVCAR-4; 16.3 µM (inactive) in the assay with SF-539; 21.8 µM (inactive) in the assay on RPMI-8226. In addition, the GI50 in the assay with IGROV-1 is 24.2 µM (inactive); in the assay on Hs-578T, 22.5 µM (inactive); in the assay with KM12, 21.9 µM (inactive); with OVCAR-8 it was 23.1 µM (inactive); in the assay with RXF 393 it was 16.1 µM (inactive); in the assay with EKVX, 20.6 µM (inactive). Also, the GI50 with BT-549 is 43.1 µM (inactive); in the assay with SK-MEL-2 it was 13.7 µM (inactive); with DU-145 it was 21.3 µM (inactive); in the assay with HCT-15, 21.9 µM; in the assay on HCC 2998 it was 20.4 µM (inactive); in the assay on A549 it was 18.5 µM (inactive). In addition, the results for the GI50 with SNB-75 and with OVCAR-3 were 52.8 µM (inactive) and 13.4 µM (inactive), respectively.
In the case of `COC(=O)c1ccc2cc(O)c(O)cc2c1`, the GI50 was 18.9 µM (inactive) with CCRF-CEM; 32.4 µM (inactive) in the assay with PC-3; 34.7 µM (inactive) in the assay on MDA-MB-435; 43.6 µM (inactive) in the assay with OVCAR-4; 40 µM (inactive) in the assay on SF-539; 29.4 µM (inactive) with RPMI-8226. Further, the GI50 with IGROV-1 is 26.7 µM (inactive); in the assay on Hs-578T, 22.8 µM (inactive); in the assay on KM12 it was 30.9 µM (inactive); in the assay on OVCAR-8, 33 µM (inactive); in the assay with RXF 393, 48.2 µM (inactive); in the assay on EKVX it was 20.5 µM (inactive). The GI50 in the assay on BT-549 is 21.2 µM (inactive); in the assay on SK-MEL-2, 39.5 µM (inactive); in the assay on DU-145, 53.2 µM (inactive); with HCT-15, 33 µM; in the assay on HCC 2998, > 68.9 µM (inactive); in the assay with A549, 36.9 µM (inactive). For the same compound, the GI50 with SNB-75 was 90.8 µM (inactive); with OVCAR-3, 31.1 µM (inactive).
Consider `O=S(=O)(O)c1cc(S(=O)(=O)O)c2c(/N=N/c3ccc(/N=N/c4ccccc4)cc3)c(O)ccc2c1`, for which the GI50 in the assay with CCRF-CEM, with PC-3, in the assay on MDA-MB-435, in the assay with OVCAR-4, in the assay with SF-539 and with RPMI-8226 was > 100 µM (inactive) each time. The GI50 in the assay with IGROV-1, in the assay with Hs-578T, in the assay on KM12, in the assay with OVCAR-8, in the assay with RXF 393 and in the assay on EKVX was > 100 µM (inactive) throughout. Further, the GI50 with BT-549 is > 100 µM (inactive); in the assay on SK-MEL-2, > 100 µM (inactive); in the assay with DU-145, > 100 µM (inactive); in the assay on HCT-15 it was more than 100 µM; in the assay on HCC 2998, > 100 µM (inactive); in the assay with A549, > 100 µM (inactive). For the same compound, the GI50 in the assay on SNB-75 and in the assay with OVCAR-3 was > 100 µM (inactive) throughout.
For `CC[C@@]1(O)C(=O)OCc2c1cc1n(c2=O)Cc2c-1nc1ccccc1c2/C=N\NC(=O)C(N)CC(C)C` (stereo not given in full), the GI50 is < 0.01 µM (active) in the assay with CCRF-CEM; < 0.0188 µM (active) with PC-3; 0.143 µM (active) with MDA-MB-435; 0.44 µM (active) in the assay on OVCAR-4; < 0.01 µM (active) in the assay on SF-539; 0.024 µM (active) in the assay on RPMI-8226. For the same compound, the GI50 is 0.233 µM (active) in the assay with IGROV-1; 11.3 µM (inactive) in the assay with Hs-578T; 0.152 µM (active) with KM12; < 0.0132 µM (active) with OVCAR-8; < 0.0143 µM (active) with RXF 393; 0.438 µM (active) with EKVX. Besides, the GI50 was 0.0382 µM (active) with BT-549; 0.6 µM (active) in the assay on SK-MEL-2; < 0.01 µM (active) with DU-145; 0.24 µM in the assay on HCT-15; 0.118 µM (active) with HCC 2998; 0.016 µM (active) in the assay on A549. The GI50 with SNB-75 is < 0.01 µM (active); with OVCAR-3 it was 0.297 µM (active).
With `CO/N=C1/C(n2[nH]c(=O)n(-c3ccccc3)c2=O)C2C=CC1n1c(=O)n(-c3ccccc3)c(=O)n12` (stereo not given), the GI50 in the assay on CCRF-CEM, with PC-3, in the assay on MDA-MB-435, in the assay with OVCAR-4, with SF-539 and in the assay on RPMI-8226 was > 100 µM (inactive) throughout. Further, the GI50 in the assay with IGROV-1, in the assay with Hs-578T, in the assay with KM12, in the assay with OVCAR-8, in the assay with RXF 393 and with EKVX was > 100 µM (inactive) in each case. Besides, the GI50 is > 100 µM (inactive) with BT-549; > 100 µM (inactive) with SK-MEL-2; > 100 µM (inactive) in the assay on DU-145; more than 100 µM in the assay on HCT-15; > 100 µM (inactive) in the assay on HCC 2998; > 100 µM (inactive) in the assay with A549. Also, the GI50 with SNB-75 and with OVCAR-3 was > 100 µM (inactive) each time.
Take `N=C(N)NCC1CCCCCCN1` (stereo not given): the GI50 in the assay on CCRF-CEM, in the assay with PC-3, in the assay on MDA-MB-435, in the assay with OVCAR-4, in the assay with SF-539 and in the assay on RPMI-8226 was > 100 µM (inactive) throughout. For the same compound, the GI50 in the assay with IGROV-1, with Hs-578T, in the assay on KM12, in the assay on OVCAR-8, in the assay with RXF 393 and in the assay on EKVX was > 100 µM (inactive) in each case. The GI50 in the assay on BT-549 is > 100 µM (inactive); in the assay on SK-MEL-2 it was > 100 µM (inactive); in the assay with DU-145, > 100 µM (inactive); in the assay with HCT-15, more than 100 µM; in the assay with HCC 2998, > 100 µM (inactive); in the assay on A549, > 100 µM (inactive). Moreover, the GI50 in the assay with SNB-75 and with OVCAR-3 was > 100 µM (inactive) in each case.
On to `CCOC(=O)/C(C(=O)Nc1cccc(Cl)c1)=C(/N)N1CCCC1`, for which the GI50 in the assay with CCRF-CEM, with PC-3, in the assay on MDA-MB-435, with OVCAR-4, in the assay with SF-539 and with RPMI-8226 was > 100 µM (inactive) throughout. Also, the GI50 in the assay on IGROV-1, in the assay with Hs-578T, with KM12, in the assay with OVCAR-8, in the assay with RXF 393 and in the assay on EKVX was > 100 µM (inactive) each time. Also, the GI50 with BT-549 is > 100 µM (inactive); with SK-MEL-2, > 100 µM (inactive); in the assay with DU-145, > 100 µM (inactive); with HCT-15 it was more than 100 µM; in the assay with HCC 2998, > 100 µM (inactive); in the assay on A549, > 100 µM (inactive). The GI50 in the assay with SNB-75 and in the assay with OVCAR-3 was > 100 µM (inactive) each time.
Take `CC1OC(=O)C2CC3CCCCC3C(/C=C/C3CCCC(C)N3C)C12` (stereo not given): the GI50 in the assay on CCRF-CEM, in the assay with PC-3, with MDA-MB-435, with OVCAR-4, in the assay with SF-539 and in the assay with RPMI-8226 was > 100 µM (inactive) throughout. Further, the GI50 in the assay with IGROV-1, in the assay with Hs-578T, in the assay on KM12, with OVCAR-8, in the assay with RXF 393 and in the assay with EKVX was > 100 µM (inactive) each time. Further, the GI50 in the assay on BT-549 was > 100 µM (inactive); in the assay on SK-MEL-2, 83.2 µM (inactive); in the assay with DU-145, > 100 µM (inactive); with HCT-15, more than 100 µM; in the assay with HCC 2998, > 100 µM (inactive); with A549, > 100 µM (inactive). Further, the GI50 is > 95.5 µM (inactive) in the assay with SNB-75 and > 100 µM (inactive) in the assay with OVCAR-3.
